These results are taken from patent US10286056B2, “Adjuvant nanoemulsions with crystallisation inhibitors” (GLAXOSMITHKLINE BIOLOGICALS S.A., priority 2011, dated 2019).

This series can be described thus: log P (partition coefficient in 1-octanol and water). The class given is physicochemical. Particulars: 1-octanol/water, pH 7.4. From the text:
Emulsions of the invention are useful for formulating lipophilic pharmacological agents (LPAs) for in vivo use. Such LPAs include, but are not limited to, vitamins (e.g. vitamins A, D, E and K and their salts/esters, such as α-tocopherol succinate), carotenoids (e.g. β-carotene), fatty acids (e.g. arachidonic acid, ecosapentaenoic acid docosahexaenoic acid), pyrimidines (e.g. 5-hydroxy-4,6-dimethyl-2-(6-phenylhexyl)aminopyrimidine), ansamitocins, angiotensin II receptor antagonists (e.g. candesartan cilexetil), and immunopotentiators (e.g. muramyl dipeptides).
For example, to deliver a 25 μg dose in a typical oil-in-water emulsion would require the agonist to have a squalene solubility of 10 mg/ml, which is about 2.5× higher than can be achieved.

`Cc1ccc2c(c1)nc(N)c1ncc(CCc3ccc(OCCC(C)C)cc3C)cc12` [compound ‘A’]: the logP was 7.5.
